{"source": "paper PMC10108347", "about": "“Heterobifunctional Ligase Recruiters Enable pan-Degradation of Inhibitor of Apoptosis Proteins” (Journal of Medicinal Chemistry, 2023)", "key": {"[1]": {"tested_on": "IAPs (cIAP1, cIAP2, XIAP)", "assay": "Immunoblotting of IAPs in MM.1S cells, overall degradation profile, time course and washout", "assay_type": "cell-based", "method": "Next, we examined the persistence of IAP degradation in MM.1S cells after a single exposure to 1 μM of 9 and subsequent removal of the compound. […] The reliance on CRL2^VHL was assessed with a neddylation inhibitor MLN4924, which blocks the activity of CRLs (Figure S13A)."}, "K562": {"tested_on": "K562", "assay": "CellTiter-Glo cell viability assay, K562", "assay_type": "cell-based", "details": "Homo sapiens, K562, read-out: K562"}, "MM.1S cells proteome": {"tested_on": "MM.1S cells proteome", "assay": "diaPASEF quantitative proteomics in MM.1S cells: proteome-wide degradation selectivity (other proteins)", "assay_type": "cell-based, human", "method": "To analyze the proteome-wide degradation selectivity of hetero-PROTACs 9, 25, and 27, a diaPASEF-based mass spectrometry approach was employed.[54] MM.1S cells were treated with 100 nM PROTACs for 3 h. […] Accordingly, global proteomic plots show the mathematically imputed levels of IAP proteins in treatment groups if the corresponding IAP was detected in the control treatment (see also Experimental Section).\nMM1s cells were treated with DMSO or 0.1 μM of compound for 3 h. The cells were harvested by centrifugation and washed with phosphate-buffered saline before snap-freezing in liquid nitrogen. The cells were lysed by addition of lysis buffer (8 M urea, 50 mM NaCl, 50 mM 4-(2-hydroxyethyl)-1-piperazine-ethanesulfonic acid (EPPS) pH 8.5, protease, and phosphatase inhibitors) and homogenization by bead beating (BioSpec) for three repeats of 30 s at 2400. Bradford assay was used to determine the final protein concentration in the clarified cell lysate. 50 μg of protein for each sample was reduced, alkylated, and precipitated using methanol/chloroform as previously described,[64] and the resulting washed precipitated protein was allowed to air dry. The precipitated protein was resuspended in 4 M urea, 50 mM HEPES pH 7.4, followed by dilution to 1 M urea with the addition of 200 mM EPPS, pH 8. […] The LysC digestion was diluted to 0.5 M urea with 200 mM EPPS pH 8, followed by digestion with trypsin (1:50; enzyme/protein) for 6 h at 37 °C. Sample digests were acidified with formic acid to a pH of 2–3 prior to desalting using C18 solid-phase extraction plates (SOLA, Thermo Fisher Scientific). Desalted peptides were dried in a vacuum centrifuge and reconstituted in 0.1% formic acid for LC–MS analysis.\nData were collected using a TimsTOF Pro2 (Bruker Daltonics, Bremen, Germany) coupled to a nanoElute LC pump (Bruker Daltonics, Bremen, Germany) via a CaptiveSpray nanoelectrospray source. […] Peptides were separated using a 50 min gradient of 2–30% buffer B (acetonitrile in 0.1% formic acid) with a flow rate of 250 nL/min and column temperature maintained at 50 °C.\nData-Dependent Acquisition (DDA) was performed in the Parallel Accumulation-Serial Fragmentation (PASEF) mode to determine effective ion mobility windows for downstream diaPASEF data collection.[54] The diaPASEF parameters included 100% duty cycle using accumulation and ramp times of 50 ms each, 1 TIMS-MS scan, and 10 PASEF ramps per acquisition cycle. The TIMS-MS survey scan was acquired between 100–1700 m/z and 1/K0 of 0.7–1.3 V × s/cm^2. Precursors with 1–5 charges were selected, and those that reached an intensity threshold of 20,000 arbitrary units were actively excluded for 0.4 min. The quadrupole isolation width was set to 2 m/z for m/z < 700 and 3 m/z for m/z > 800, with the m/z between 700 and 800 m/z being interpolated linearly. […] To perform diaPASEF, the precursor distribution in the DDA m/z-ion mobility plane was used to design an acquisition scheme for DIA data collection, which included two windows in each 50 ms diaPASEF scan. Data was acquired using 16 of these 25 Da precursor double window scans (creating 32 windows), which covered the diagonal scan line for doubly and triply charged precursors, with singly charged precursors able to be excluded by their position in the m/z-ion mobility plane. These precursor isolation windows were defined between 400–1200 m/z and 1/K0 of 0.7–1.3 V × s/cm^2.\nThe diaPASEF raw file processing and controlling peptide and protein level false discovery rates, assembling proteins from peptides, and protein quantification from peptides were performed using library-free analysis in DIA-NN 1.8.[65] The library-free mode performs an in silico digestion of a given protein sequence database alongside deep learning-based predictions to extract the DIA precursor data into a collection of MS^2 spectra."}, "DB": {"tested_on": "DB", "assay": "CellTiter-Glo cell viability assay, DB", "assay_type": "cell-based", "details": "Homo sapiens, DB, read-out: DB"}, "HEL": {"tested_on": "HEL", "assay": "CellTiter-Glo cell viability assay, HEL", "assay_type": "cell-based", "details": "Homo sapiens, HEL, read-out: HEL"}, "cIAP2": {"target": "cIAP2 (Homo sapiens, UniProt Q13489)", "sequence (Q13489 whole entry)": "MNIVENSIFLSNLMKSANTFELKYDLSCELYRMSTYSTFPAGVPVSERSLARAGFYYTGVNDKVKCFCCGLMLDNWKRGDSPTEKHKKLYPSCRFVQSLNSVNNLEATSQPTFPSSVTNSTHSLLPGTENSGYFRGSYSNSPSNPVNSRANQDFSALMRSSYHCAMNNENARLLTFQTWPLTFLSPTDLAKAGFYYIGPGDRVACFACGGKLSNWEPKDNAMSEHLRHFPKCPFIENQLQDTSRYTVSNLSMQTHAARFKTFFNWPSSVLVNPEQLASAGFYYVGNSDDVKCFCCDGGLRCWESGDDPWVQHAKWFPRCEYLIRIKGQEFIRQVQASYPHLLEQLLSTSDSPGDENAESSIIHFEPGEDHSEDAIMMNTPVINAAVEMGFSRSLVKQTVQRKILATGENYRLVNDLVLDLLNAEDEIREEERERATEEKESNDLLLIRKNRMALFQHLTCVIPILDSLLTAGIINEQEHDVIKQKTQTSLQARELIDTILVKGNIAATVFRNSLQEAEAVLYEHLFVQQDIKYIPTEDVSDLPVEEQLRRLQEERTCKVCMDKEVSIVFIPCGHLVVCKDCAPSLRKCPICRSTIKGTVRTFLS", "assay": "Immunoblotting (western blot) quantification of cIAP2 levels in MM.1S cells", "details": "MM1.S, 16 h, read-out: %remaining protein cIAP2", "experimental": "To evaluate the capability of our panel of hetero-PROTACs for E3 ligase degradation, VHL19, VHL30, CRBN, cIAP1, cIAP2, and XIAP levels were quantified by western blot analyses. […] SDS-PAGE was performed, and proteins were then transferred onto PVDF membranes. Blotted membranes were blocked with 5% milk in Tris-buffered saline/Tween20 (TBST). Primary antibodies were diluted in 5% BSA in TBST, and incubations were performed overnight at 4 °C. Secondary HRP-conjugated antibodies diluted in 5% milk were incubated for 1 h at room temperature. Detection of proteins on PVDF was carried out using the WesternBright ECL HRP substrate or the WesternBright Sirius HRP substrate (Advansta, San Jose, USA) and imaged with LAS 4000× (Fujifilm). Membranes were subjected to 10 min incubation with Restore Western Blot Stripping Buffer (Thermo Fisher Scientific, Waltham, USA), followed by TBST washes. After brief re-activation with methanol, the membranes were blocked, and further probing of proteins was carried out.\nQuantification of blots was performed using ImageJ software (National Institutes of Health)."}, "MOLM13": {"tested_on": "MOLM13", "assay": "CellTiter-Glo cell viability assay, MOLM13", "assay_type": "cell-based", "details": "Homo sapiens, MOLM-13, read-out: MOLM13"}, "[2]": {"details": "MM.1S cells, 0.1 μM, 3 h, log2 fold change compound vs CTRLs (limma)"}}, "note": "Values joined by “and” are separate entries in the source; they are usually repeats but may differ in a detail not shown here. Equal entries are not always repeated."}
{"smiles": "CN[C@@H](C)C(=O)N[C@H](C(=O)N1C[C@@H](Oc2cccc(OCCOCCCCCCOCCCCCCNc3cccc4c3C(=O)N(C3CCC(=O)NC3=O)C4=O)c2)C[C@H]1C(=O)N[C@@H]1CCCc2ccccc21)C1CCCCC1", "note": "(stereo partly drawn) [PROTAC 25, (2S,4S)-1-((S)-2-Cyclohexyl-2-((S)-2-(methylamino)propanamido)acetyl)-4-(3-(2-((6-((6-((2-(2,6-dioxopiperidin-3-yl)-1,3-dioxoisoindolin-4-yl)amino)hexyl)oxy)hexyl)oxy)ethoxy)phenoxy)-N-((R)-1,2,3,4-tetrahydronaphthalen-1-yl)pyrrolidine-2-carboxamide]", "values": [{"measurement": "time to complete degradation of cIAP1, cIAP2 and XIAP", "setting": "[1]; 0.1 μM, time course", "result": "≤ 3", "unit": "h"}, {"measurement": "IAP degradation profile (in words)", "setting": "[1]; 16 h, western blot, concentration (10 nM to 1 μM)", "result": "pronounced pan-IAP depletion and Complete cIAP1 and XIAP depletion occurred already at 10 nM and 0.1 μM concentration was needed for the complete depletion of all IAPs"}, {"measurement": "IC50", "setting": "K562", "result": 380, "unit": "nM"}, {"measurement": "Precursor intensity (DIA-NN), CLPX precursor AAAAADLANR2", "setting": "MM.1S cells proteome; CLPX_HUMAN (O76031), ATP-dependent Clp protease ATP-binding subunit clpX-like, mitochondrial, precursor charge 2, per-replicate values (rep1, rep2), listed as SAB141", "result": "7987.33 and 21462.9"}, {"measurement": "logFC COX5A", "setting": "MM.1S cells proteome; [2]", "result": -0.5474}, {"measurement": "logFC LMAN2", "setting": "MM.1S cells proteome; [2]", "result": -0.1147}, {"measurement": "logFC TOP1", "setting": "MM.1S cells proteome; [2]", "result": 0.3058}, {"measurement": "Precursor intensity (DIA-NN), RPL4 precursor […]1", "setting": "MM.1S cells proteome; RL4_HUMAN (P36578), 60S ribosomal protein L4, precursor charge 1, per-replicate values (rep1, rep2)", "result": 321.394}, {"measurement": "Precursor intensity (DIA-NN), RPL4 precursor […]2", "setting": "MM.1S cells proteome; RL4_HUMAN (P36578), 60S ribosomal protein L4, precursor charge 2, per-replicate values (rep1, rep2), listed as SAB141", "result": "467864 and 464908"}, {"measurement": "Precursor intensity (DIA-NN), SAMD1 precursor AAAAAATAPPSPGPAQPGPR2", "setting": "MM.1S cells proteome; SAMD1_HUMAN (Q6SPF0), Atherin, precursor charge 2, per-replicate values (rep1, rep2), listed as SAB141", "result": "14133.9 and 10400.6"}, {"measurement": "Precursor intensity (DIA-NN), ZFP91 precursor AAAAAAAAAVSR2", "setting": "MM.1S cells proteome; ZFP91_HUMAN (Q96JP5), E3 ubiquitin-protein ligase ZFP91, precursor charge 2, per-replicate values (rep1, rep2), listed as SAB141", "result": "72214.7 and 61349"}, {"measurement": "IC50", "setting": "DB", "result": 160, "unit": "nM"}, {"measurement": "IC50", "setting": "HEL", "result": 300, "unit": "nM"}, {"measurement": "remaining activity at 0.1 µM", "setting": "cIAP2", "result": 8, "unit": "%"}, {"measurement": "IC50", "setting": "MOLM13", "result": 52, "unit": "nM"}]}
